# Tests used:
# [1] = Crystal formation seen in the cell-based assays; format: physicochemical; conditions: MNV CPE reduction assay, Supplementary Table S1
# HuNoV (GII.4) RdRp [2] = molecular target: HuNoV (GII.4) RdRp (Norovirus Hu/GII.4/Sydney/NSW0514/2012/AU, UniProt K4L8Z7); experiment: Quantitative fluorescent RdRp activity assay (PicoGreen, poly(C) template); format: biochemical, human norovirus Sydney 2012
# Procedure: The newly synthesised compounds, including the carboxylate ester derivatives 34–35 and 7 from the Core Hopping approach, were evaluated for their enzymatic inhibition of human norovirus Sydney 2012 (HuNoV (GII.4)) RdRp activity in vitro, using a quantitative fluorescent assay. Compounds were tested at six different concentrations (concentration range examined: 0.1–100 µM) and compared to the relative activity of mock treated samples containing the vehicle only (0.5% DMSO [vol/vol]). PPNDS [Pyridoxal-5′-phosphate-6-(2′-naphthylazo-6′-nitro-4′,8′-disulfonate) tetrasodium salt], a previously reported potent inhibitor of NoV RdRp activity, and 1 were used as positive controls. Dose-dependent inhibitory response curves were used to establish IC50 values for the eight test compounds, as reported in Table 1 (see also Supplementary Fig. S1).
# The newly prepared compounds 48–60 were initially evaluated against norovirus Sydney 2012 RdRp activity in vitro using a quantitative fluorescent assay. Compounds were tested at a fixed concentration of 20 µM and compared to the relative activity of mock treated samples. PPNDS and 1 were used as positive controls. […] These two rings are structural features present in 1 and in one of its derivatives we have previously reported. […] From these observations, the thiophene ring appears not to influence inhibitory activity. Derivatives in which the central core of 48 has been used to link the two terminal hydrophobic rings of 1 or of its derivatives we have previously reported[25] (55, 57, 58) appear to retain the RdRp inhibitory activity found for 48 (~20% at 20 µM). A similar effect is obtained when a sulfonyl group, as in our hit 1, is used to link ring 2, regardless if it is a thiazole (59) or an unsubstituted phenyl ring (60), to the rest of the molecule. […] Overall, even if showing a reduced biochemical activity in comparison with 1, some of the new derivatives can be considered as modest HuNoV RdRp inhibitors at 20 µM.
# (§1) Fluorescent RdRp activity assays were carried out as previously described[12],[29]. Briefly, RdRp activity was quantified by monitoring the formation of double-stranded RNA (dsRNA) from a single stranded homopolymeric template, poly(C) (Sigma Aldrich), using the fluorescent dye PicoGreen (Life Technologies, Carlsbad, CA, USA). RdRp assays were performed in 384-well plates, and each reaction mixture contained 400 ng enzyme, 45 μM GTP, 10 ng/μL poly(C) RNA, 2.5 mM MnCl2, 5 mM dithiothreitol, (DTT), 0.01% bovine serum albumin (BSA), and 0.005% Tween 20 in 20 mM Tris-HCl, pH 7.5, with a final reaction volume of 25 μL. The PPNDS and compound 1 were used as a positive controls. RdRps were incubated for 10 mins at 30 °C in the presence of the test compounds or the compound vehicle DMSO (0.5% vol/vol) before addition into the reaction mixture, which was then allowed to run 15 min at 30 °C then terminated with 10 mM EDTA, followed by PicoGreen staining and dsRNA quantitation. GraphPad Prism V6.05 (La Jolla, CA, USA) was used to plot the IC50 values. A secondary gel-based polymerase activity assay was used as a counter-screen as described below, to exclude the possibility of RdRp activity enhancement. Primed elongation activity was examined in a gel-based assay as previously described[12],[29] using the RNA template (PE44-NoV). Gels were imaged using BioRad (Hercules, CA, U.SA) Geldoc Universal Hood II, running BioRad Image Lab software, V4.1, build 16.
# [3] = Cytotoxicity by the MTS method on uninfected cells; format: cell-based; conditions: mouse, uninfected RAW 264.7 cells
# Procedure: Cytotoxicity: The cytotoxicity of the Compounds was evaluated by the MTS method, by exposing uninfected cells to the same concentrations of compounds for 3 days. The %cell viability was calculated as (ODtreated/ODCC) × 100, where ODCC is the OD of uninfected untreated cells and ODtreated are uninfected cells treated with compound. The CC50 was defined as the compound concentration that reduces the number of viable cells by 50%[34].
# MNV = MNV CPE reduction assay (MTS) in RAW 264.7 cells; format: cell-based, mouse norovirus (MNV-1.CW1); conditions: Norovirus, RAW264.7, in Mus musculus
# Procedure: The newly prepared compounds 2–7 and 34–35 were evaluated for their antiviral effect against the genogroup V mouse norovirus (MNV) using the mouse macrophage cell line RAW264.7. This assay evaluates the ability of the compounds to protect infected cells from the virus-induced cytopathic effect, thus being suitable to identify inhibition of virus replication at every step of the virus life cycle, and representing a robust cellular assay available for the rapid evaluation of potential norovirus inhibitors. Compounds identified using MNV have shown effects against HuNoV in vitro and in vivo, as in the case of nucleoside RdRp inhibitor 2′-C-methylcytidine (2CMC)[34]–[36]. Unfortunately, despite not presenting the aqueous solubility issues we had previously encountered for 1[29], no significant antiviral effect could be observed in this assay for the new compounds up to the maximum concentration tested. The new structural modifications, despite retaining inhibition of the RdRp in an isolated enzyme activity assay and showing no cytotoxic effects at the test concentrations in the MNV antiviral assay (Supplementary Table S1), are correlated with a lack of antiviral activity. As these new structures present the same limitation of most non-nucleoside HuNoV polymerase inhibitors reported so far[22], we were prompted to apply a different computer-aided strategy to further modify the scaffold of 1, with the aim to achieve an antiviral effect in cellular systems. […]
# Since the main scope of this work was to find new norovirus inhibitors which show antiviral effects against both the HuNoV RdRp and in norovirus-infected cells, priority was given to the evaluation of most of the new molecules for their antiviral activity against MNV in infected RAW cells. The nucleoside 2′-C-methylcytidine was used as positive control. The test compounds were evaluated at eight different concentrations (range 0.6–100 µM) and their ability to reduce the virus-induced cytopathic effect was assessed.
# Cells and virus: MNV (virus strain MNV-1.CW1) was propagated in RAW 264.7 cells grown in DMEM (Life Technologies, Gent, Belgium) supplemented with 10% or 2% FBS, 2 mM L-glutamine, 20 mM HEPES, 0.075 g/L sodium bicarbonate, 1 mM sodium pyruvate, 100 U penicillin/mL and 100 µg/mL streptomycin at 37 °C in a humidified atmosphere of 5% CO2. The human norovirus GI.1 replicon harboring gastric tumor-1 cell line (HGT-NV) (kindly provided by Dr. Ian Goodfellow, University of Cambridge) was maintained in DMEM supplemented with 10% FBS, 2mM L-glutamine, 0.075 g/L sodium bicarbonate and 1.0 mg/ml of Geneticin (G418; Life Technologies), at 37 °C in a humidified atmosphere of 5% CO2[34].
# Antiviral assay with MNV: The antiviral activity of the Compounds was determined using an MTS [3-(4,5-dimethylthiazol-2-yl)-5-(3-carboxymethoxyphenyl)-2-(4-sulfophenyl)-2H-tetrazolium]-based cytopathic effect (CPE) reduction assay. […] Then, a MTS-phenazinemethosulfate (MTS/PMS) stock solution [(2 mg/mL MTS (Promega, Leiden, The Netherlands) and 46 µg/mL PMS (Sigma–Aldrich, Bornem, Belgium) in PBS at pH 6–6.5)] was diluted 1/20 in MEM (Life Technologies, Gent, Belgium) and 75 µL were added to each well. After 2 h, the optical density (OD) was read at 498 nm. The %CPE reduction was calculated as [(ODtreated)MNV − ODVC]/[ODCC − ODVC] × 100, where ODCC represents the OD of the uninfected untreated cells, whereas ODVC and (ODtreated)MNV represent the OD of infected untreated cells and virus-infected cells treated with a compound concentration, respectively. The 50% effective concentration (EC50) was defined as the compound concentration that protected 50% of the cells from virus-induced CPE[34].
# HuNoV (GII.4) RdRp [4] = experiment: Counter-screen gel-shift assay of primed elongation activity (PE44-NoV template); format: biochemical, human norovirus; conditions: fixed concentration of 100 μM
# Procedure: To further confirm RdRp inhibition and exclude any potential false positives from the first fluorescence RdRp assay, the eight molecules were then assessed using a gel-shift enzyme activity assay at a fixed concentration of 100 μM, following a procedure previously adopted by our research group.
# Figure 5 A counter-screen gel-shift assay was used to confirm HuNoV (GII.4) RdRp inhibitory activity of compounds 2, 3, 34 and 35 (A), 4, 5, 6 (B) and 7 (C). The eight compounds were examined for inhibition of primed elongation activity. PE44-NoV RNA templates (32 nucleotides) were extended (44 nucleotides) by the RdRp in the absence of any test compounds (0.5% DMSO [vol/vol] negative control) or with test compounds at a fixed concentration of 100 μM. […] Full-length gels are presented in Supplementary Fig. S3.
# as §1
# [5] = Supplementary Table S1, at least two independent experiments
structure (smiles),measurement,setting,value
"CCOC(=O)c1ccc(N2NC(=O)/C(=C\c3ccc(-c4ccc(S(=O)(=O)Nc5ccccc5)cc4)o3)C2=O)cc1 [Compound 34, Ethyl(E)-4-(3,5-dioxo-4-((5-(4-(N-phenylsulfamoyl)phenyl)furan-2-yl)methylene)pyrazolidin-1-yl)benzoate]",crystals noted in the assay,[1],crystals
same,IC50,"HuNoV (GII.4) RdRp [2]; HuNoV (GII.4) RdRp activity, six concentrations 0.1–100 µM, mean ± SD",13.5 ± 5.8 µM
same,CC50 at 3 days,[3]; [5],> 100 µM
same,EC50,MNV; [5],> 100 µM
"O=C(Cc1cccc(-c2ccccc2)c1)Nc1ccc(S(=O)(=O)Nc2ccccc2)cc1 [Compound 7, 2-([1,1′-biphenyl]-3-yl)-N-(4-(N-phenylsulfamoyl)phenyl)acetamide]",inhibition of primed elongation activity (gel-shift),HuNoV (GII.4) RdRp [4],did not demonstrate inhibition
same,inhibition at 100 µM,"HuNoV (GII.4) RdRp [2]; 100 µM, read-out: inhibition of RdRp activity at the maximum concentration tested",20%
same,CC50 at 3 days,[3]; [5],20 ± 21 µM
same,EC50,MNV; [5],> 12.5 µM
"O=C(NC(=S)Nc1ccc(N2CCN(C(=O)c3ccco3)CC2)cc1)c1sc2ccccc2c1Cl [Compound 53, 3-Chloro-N-((4-(4-(furan-2-carbonyl)piperazin-1-yl)phenyl)carbamothioyl)benzo[b]thiophene-2-carboxamide]",inhibition of primed elongation activity (gel-shift),HuNoV (GII.4) RdRp [4],significant inhibition
same,inhibition at 20 µM,"HuNoV (GII.4) RdRp [2]; 20 µM, read-out: inhibition of HuNoV RdRp activity at fixed concentration",≤ 60%
same,CC50 at 3 days,"[3]; Table 2, at least three independent experiments",9.4 ± 2.3 µM
same,EC50,"MNV; Table 2, RAW 264.7, range 0.6–100 µM, at least three independent experiments",> 100 µM

# Reference: paper PMC6895199, “A new antiviral scaffold for human norovirus identified with computer-aided approaches on the viral polymerase” (Scientific Reports, 2019)
